Laboratory results published in PMC8845285, “Serotoninergic receptor ligands improve Tamoxifen effectiveness on breast cancer cells” (BMC Cancer, 2022).
Like-named read-outs stand apart in the source and are kept apart here.

How the values were obtained:
MDA-MB231 cells = experiment: MDA-MB231 cell viability, sulforhodamine B assay; format: cell-based, human; details: for IC50: Homo sapiens, MDA-MB-231, 72 h treatment
Procedure: (§1) MCF7 (ER^+, PR^+, HER2^−), SKBR3 (ER^−, PR^+, HER2^+) and MDA-MB231 (ER^−, PR^−, HER2^−) human BC cells and MCF10A non-cancer breast epithelial cells were available in our laboratory. MCF7, SKBR3 and MDA-MB231 cells were cultured in DMEM, supplemented with 10% FBS, 2 mM glutamine, 100 units/ml penicillin and 100 units/ml streptomycin. MCF10A cells were cultured in MEBM, supplemented with 0.4% BPE, 0.1% hEGF, 0.1%, Insulin, 0.1% Hydrocortisone and 0.1% GA-1000. […] Treatment with SER were carried out in culture conditions. Treatment with Tamoxifen and/or SER were carried out upon 48 h estrogen starvation in phenol-red free medium supplemented with 10% Charcoal Stripped (C/S) FBS, 2 mM glutamine, 100 units/ml penicillin and 100 units/ml streptomycin.
(§2) Cells were fixed with 50% trichloroacetic acid for at least 2 h at 4 °C, washed with distilled and de-ionized water, air-dryed and stained 30 min with 0.4% sulforhodamine B in 1% acetic acid. Unbound dye was removed and 10 mM tris-HCl solution (pH 7.5) was added to dissolve the protein-bound dye. Cell survival was assessed by optical density determination at 510 nm using a microplate reader.
Cell viability was assessed, after 72 h, by sulforhodamine B assay (see Methods).

[1] = biological target: T1, serotonin 5-HT2A receptor (Rattus norvegicus, UniProt P14842); experiment: radioligand binding assay, 5-HT2A, [3H]ketanserin; details: rat brain cortex; read-out: Ki ± SD, 5-HT2A [3H]Ketanserin
T1 construct: serotonin 5-HT2A receptor, [^3H]ketanserin, rat brain cortex; from tissue; host or cells: rat brain cortex
Procedure: (§3) All reactions were monitored by TLC, carried out on Merck 60G F254 plates with fluorescent indicator and the plates were visualized with UV light (254 nm). Each final compound and intermediate was purified by silica gel column chromatography (Macherey-Nagel 60 0,063–0,2 mm/70–230 mesh). […] Unless otherwise stated, all spectra were recorded in CDCl3. Chemical shifts are reported in ppm using Me4Si as internal standard. The following abbreviations are used to describe peak patterns when appropriate: s (singlet), d (doublet), t (triplet), m (multiplet), q (quartet), qt (quintet), dd (double doublet), ddd (double dd), bs (broad singlet). Mass spectra of the final products were performed on LTQ Orbitrap XL™ Fourier transform mass spectrometer (FTMS) equipped with ESI ION MAX™ source (Thermo Fisher, San José, USA). Melting points were determined using a Buchi B-540 hot-stage instrument and are uncorrected. […] All the compounds were dissolved in 5% DMSO. The following specific radioligands and tissue sources were used: (a)serotonin 5-HT1A receptor, [^3H]-8-OH-DPAT, rat brain cortex; (b) serotonin 5-HT2A receptor, [^3H]ketanserin, rat brain cortex; (c)serotonin 5-HT2C receptor, [^3H]mesulergine, rat brain cortex. Non-specific binding was determined as described in the experimental section, and specific binding as the difference between total and non-specific binding. […] The IC50 values obtained were used to calculate apparent inhibition constants (Ki) by the method of Cheng and Prussoff, from the following equation: Ki = IC50/(1 + S/KD) where S represents the concentration of the hot ligand used and KD its receptor dissociation constant (KD values, obtained by Scatchard analysis, were calculated for each labeled ligand). Radioligand binding assays for 5-HT1A were performed following a published procedure. 5-HT2A and 5-HT2C binding assays were performed reported by Herndon et al..

SKBR3 cells = experiment: SKBR3 cell viability, sulforhodamine B assay; format: cell-based, human; details: for IC50: Homo sapiens, SK-BR-3, 72 h treatment
Procedure: as §1, §2
Fig. 3 Effect of SER on SKBR3 cell viability. […] Cell viability was assessed, after 72 h, by sulforhodamine B assay (see Methods).

MCF7 cells = experiment: MCF7 cell viability, sulforhodamine B assay; format: cell-based, human; details: for IC50: Homo sapiens, MCF7
Procedure: as §1, §2
After 48 and 72 h, cell viability was assessed by sulforhodamine B assay (see Methods).

[2] = biological target: T2, serotonin 5-HT1A receptor (Rattus norvegicus, UniProt P19327); experiment: radioligand binding assay, 5-HT1A, [3H]-8-OH-DPAT; details: rat brain cortex; read-out: Ki ± SD, 5-HT1A [3H]8OH-DPAT
T2 construct: serotonin 5-HT1A receptor, [^3H]-8-OH-DPAT, rat brain cortex; from tissue; host or cells: rat brain cortex
T2 sequence (P19327 1-422): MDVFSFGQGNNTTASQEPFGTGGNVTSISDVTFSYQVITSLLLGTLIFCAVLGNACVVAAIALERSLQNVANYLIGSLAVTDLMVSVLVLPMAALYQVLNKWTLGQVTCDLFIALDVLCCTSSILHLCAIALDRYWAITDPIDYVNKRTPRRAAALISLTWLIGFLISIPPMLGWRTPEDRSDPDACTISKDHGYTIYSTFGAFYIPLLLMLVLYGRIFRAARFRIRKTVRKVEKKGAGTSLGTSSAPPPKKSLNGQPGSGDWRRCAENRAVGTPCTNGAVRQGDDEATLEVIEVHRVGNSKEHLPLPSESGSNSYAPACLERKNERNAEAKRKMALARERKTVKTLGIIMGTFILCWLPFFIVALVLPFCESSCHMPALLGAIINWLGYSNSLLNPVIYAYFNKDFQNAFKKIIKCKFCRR
Procedure: as §3

[3] = biological target: T3, serotonin 5-HT2C receptor (Rattus norvegicus, UniProt P08909); experiment: radioligand binding assay, 5-HT2C, [3H]mesulergine; details: read-out: Ki ± SD, 5-HT2C [3H]Mesulergine
T3 construct: serotonin 5-HT2C receptor, [^3H]mesulergine, rat brain cortex; from tissue; host or cells: rat brain cortex
T3 sequence (P08909 33-460): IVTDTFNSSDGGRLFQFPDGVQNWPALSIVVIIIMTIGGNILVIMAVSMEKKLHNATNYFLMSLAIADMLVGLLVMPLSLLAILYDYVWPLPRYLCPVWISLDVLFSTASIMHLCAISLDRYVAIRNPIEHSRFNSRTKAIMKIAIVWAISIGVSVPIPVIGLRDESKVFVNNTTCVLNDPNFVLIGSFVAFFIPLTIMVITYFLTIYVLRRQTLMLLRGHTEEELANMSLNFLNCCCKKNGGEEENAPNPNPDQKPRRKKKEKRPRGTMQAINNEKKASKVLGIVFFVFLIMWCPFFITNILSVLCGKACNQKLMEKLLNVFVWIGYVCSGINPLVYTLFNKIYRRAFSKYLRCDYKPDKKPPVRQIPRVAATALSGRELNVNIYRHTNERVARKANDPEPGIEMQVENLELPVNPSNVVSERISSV
Procedure: as §3

[4] = 48 h treatment, read-out: IC50 MCF7 48h
[5] = 72 h treatment, read-out: IC50 MCF7

T1 sequence (P14842 whole entry): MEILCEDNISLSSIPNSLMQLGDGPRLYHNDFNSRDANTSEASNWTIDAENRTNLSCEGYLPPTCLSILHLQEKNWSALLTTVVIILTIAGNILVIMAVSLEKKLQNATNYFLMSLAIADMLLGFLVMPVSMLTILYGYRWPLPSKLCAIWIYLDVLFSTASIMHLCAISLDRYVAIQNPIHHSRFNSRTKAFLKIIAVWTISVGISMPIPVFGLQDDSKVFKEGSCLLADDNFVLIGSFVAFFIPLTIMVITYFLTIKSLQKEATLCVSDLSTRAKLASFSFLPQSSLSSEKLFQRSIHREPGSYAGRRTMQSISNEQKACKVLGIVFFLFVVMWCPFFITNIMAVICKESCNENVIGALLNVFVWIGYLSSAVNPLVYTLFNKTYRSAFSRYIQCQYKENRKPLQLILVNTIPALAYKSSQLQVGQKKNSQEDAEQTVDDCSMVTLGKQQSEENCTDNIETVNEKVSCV

Structure (SMILES) | IC50 (MDA-MB231 cells) [µM] | Ki [1] [µM] | IC50 (SKBR3 cells) [µM] | IC50 (MCF7 cells; [4]) [µM] | IC50 (MCF7 cells; [5]) [µM] | Ki [2] [µM] | Ki [3] [µM] | Ki ([3]; rat brain cortex) [µM] | inhibition of MDA-MB231 cell growth (MDA-MB231 cells; 100 μM, 72 h) | reduction of SKBR3 cell viability (SKBR3 cells; 50 μM, 72 h) | reduction of MCF7 cell viability (MCF7 cells; 50 μM, 72 h)
O=C(NCCCN1CCN(C(=O)c2ccco2)CC1)c1ccccn1 [SER196] | 306 ± 65.8 | 0.00168 ± 0.0004 | 202 ± 31.2 | 206 ± 50.7 | 124 ± 31 | – | – | – | – | – | –
O=C(NCCN1CCN(c2cccc(C(F)(F)F)c2)CC1)c1ccccn1 [SER167] | 223 ± 154 | 0.0485 ± 0.0027 | 152 ± 21.6 | 151 ± 41.6 | 54.2 ± 10 | 1.32 ± 0.012 | 0.14 ± 0.0025 | – | – | – | –
O=C(NCCCN1CCN(Cc2ccc3c(c2)OCO3)CC1)c1ccccn1 [SER195] | 322 ± 118 | 0.0453 ± 0.0057 | 150 ± 26 | 156 ± 36.1 | 53.3 ± 8.29 | – | – | – | – | – | –
O=C(NCCN1CCN(C(c2ccc(F)cc2)c2ccc(F)cc2)CC1)c1ccccn1 [SER177] | 198 ± 66.7 | 0.218 ± 0.0093 | 43.3 ± 11.1 | 253 ± 65.6 | 66.6 ± 16.2 | – | – | 0.0008 ± 5e-05 | – | – | –
O=C(c1ccco1)N1CCN(CC(O)CON2C(=O)C3C4C=CC(C4)C3C2=O)CC1 (stereo not shown) [SER31, 4-[3-[4-(2-furoyl)piperazin-1-yl]propoxy-2-ol]-4-aza-tricyclo [5.2.1.02,6]dec-8-ene-3,5-dione] | 136 ± 38.6 | > 10 | 100 ± 30.8 | 336 ± 153 | 99.2 ± 33 | 1.05 ± 0.000231 | – | 0.00504 ± 0.000227 | able to inhibit | – | –
O=C(NCCCN1CCN(C(c2ccc(F)cc2)c2ccc(F)cc2)CC1)c1ccccn1 [SER198] | 91.3 ± 18.6 | 0.0778 ± 0.0021 | 67.7 ± 8.02 | 106 ± 18.4 | 10.2 ± 2.5 | 0.0527 ± 0.0027 | 0.117 ± 0.0061 | – | – | ≈ 50% | ≈ 70%
